What was measured:
[1] = molecular target: T1, recombinant human CI-M6PR protein (Homo sapiens, UniProt P11717); assay: M6PR binding ELISA of matuzumab ligand-linker conjugates; conditions: conjugates of ligand linkers
T1 construct: purchased R&D 6418-GR-050
Method: Binding affinity of matuzumab conjugated to ligand-linkers for M6PR w as determined by ELISA using the following protocol: Nunc black solid bottom MaxiSorp plates were allowed to incubate overnight at 4° C. coated with 1 μg/mL of recombinant human CI-M6PR protein (R&D, 6418-GR-050) in 50 μL PBS. The next day, coating was decanted and plates were washed 3× with PBS. Wells were blocked with 350 μL of 3% BSA-PBS for 1 hour at room temperature. Blocking solution was removed and matuzumab conjugates (matuzumab-Compound I-7 (d4), matuzumab-Compound I-7 (d8), matuzumab-Compound I-8 (d4), matuzumab-Compound I-9 (d4), matuzumab-Compound I-11 (d4) and matuzumab-Compound I-12 (d4)) and their respective isotype controls (human IgG (bioxcell, BP0297) conjugated to the ligand-linker compounds being tested) were diluted in 3% BSA-PBS. 50 µL of diluted conjugates were added to the plate and allowed to incubate at room temperature for 2 hours. After incubation, solutions in plate were decanted and washed with […] of 0.05% PBS-Tween20 three times, drying the plate each wash on a clean paper towel. 50 μL of peroxidase AffiniPure Mouse Anti-Human IgG (Jackson Immuno, 209-035-088) diluted in 3% BSA-PBS to 0.2 μg/mL was added to the plate and allowed to incubate for 1 hour at room temperature in the dark. […]

[2] = system: Jurkat cells; assay: Intracellular uptake of anti-IgG2a conjugates with IgG2a-Alexa488 in Jurkat cells; type: cell-based, human; conditions: 1 h and 24 h
Method: Anti-IgG2a conjugates were generated by adding anti-IgG2a rIgG1 (Southern Biotech, Cat #1155-ol) to a solution of PBS buffer pH 7.2 containing 10% DMSO (final antibody concentration 5 mg/mL). Linker (e.g., Compound I-7) was added (at a 5-40× linker:antibody molar ratio), and the reaction was incubated at room temperature for 3 hours. Excess linker was removed by size exclusion chromatography (Superdex 200 Increase. Cat i28990944) and final DAR, was determined by LC/MS (Sciex 5600+. Acquity UPLC BEH C4 column. Cat #186004495). The resulting rIgG1 antibody conjugates were used in the experiments below.
The anti-IgG2a conjugates were bound to IgG2a-Alexa488, as follows: equal molar ratios of anti-IgG2a and IgG2a-Alexa488 were added in tissue culture media for 30 minutes at room temperature. The resulting anti-IgG2a:IgG2a antibody-Alexa488 compositions were added to Jurkat cells (100k cells/50 ul per well, n=2), and Alexa488 fluorescence levels were measured (via Alexa488 measurement) at 1 hour and 24 hours by flow cytometry. Because Alexa488 accumulates in cells, this presents a way to measure total intracellular uptake by cells over time.

T1 sequence (P11717 41-2491): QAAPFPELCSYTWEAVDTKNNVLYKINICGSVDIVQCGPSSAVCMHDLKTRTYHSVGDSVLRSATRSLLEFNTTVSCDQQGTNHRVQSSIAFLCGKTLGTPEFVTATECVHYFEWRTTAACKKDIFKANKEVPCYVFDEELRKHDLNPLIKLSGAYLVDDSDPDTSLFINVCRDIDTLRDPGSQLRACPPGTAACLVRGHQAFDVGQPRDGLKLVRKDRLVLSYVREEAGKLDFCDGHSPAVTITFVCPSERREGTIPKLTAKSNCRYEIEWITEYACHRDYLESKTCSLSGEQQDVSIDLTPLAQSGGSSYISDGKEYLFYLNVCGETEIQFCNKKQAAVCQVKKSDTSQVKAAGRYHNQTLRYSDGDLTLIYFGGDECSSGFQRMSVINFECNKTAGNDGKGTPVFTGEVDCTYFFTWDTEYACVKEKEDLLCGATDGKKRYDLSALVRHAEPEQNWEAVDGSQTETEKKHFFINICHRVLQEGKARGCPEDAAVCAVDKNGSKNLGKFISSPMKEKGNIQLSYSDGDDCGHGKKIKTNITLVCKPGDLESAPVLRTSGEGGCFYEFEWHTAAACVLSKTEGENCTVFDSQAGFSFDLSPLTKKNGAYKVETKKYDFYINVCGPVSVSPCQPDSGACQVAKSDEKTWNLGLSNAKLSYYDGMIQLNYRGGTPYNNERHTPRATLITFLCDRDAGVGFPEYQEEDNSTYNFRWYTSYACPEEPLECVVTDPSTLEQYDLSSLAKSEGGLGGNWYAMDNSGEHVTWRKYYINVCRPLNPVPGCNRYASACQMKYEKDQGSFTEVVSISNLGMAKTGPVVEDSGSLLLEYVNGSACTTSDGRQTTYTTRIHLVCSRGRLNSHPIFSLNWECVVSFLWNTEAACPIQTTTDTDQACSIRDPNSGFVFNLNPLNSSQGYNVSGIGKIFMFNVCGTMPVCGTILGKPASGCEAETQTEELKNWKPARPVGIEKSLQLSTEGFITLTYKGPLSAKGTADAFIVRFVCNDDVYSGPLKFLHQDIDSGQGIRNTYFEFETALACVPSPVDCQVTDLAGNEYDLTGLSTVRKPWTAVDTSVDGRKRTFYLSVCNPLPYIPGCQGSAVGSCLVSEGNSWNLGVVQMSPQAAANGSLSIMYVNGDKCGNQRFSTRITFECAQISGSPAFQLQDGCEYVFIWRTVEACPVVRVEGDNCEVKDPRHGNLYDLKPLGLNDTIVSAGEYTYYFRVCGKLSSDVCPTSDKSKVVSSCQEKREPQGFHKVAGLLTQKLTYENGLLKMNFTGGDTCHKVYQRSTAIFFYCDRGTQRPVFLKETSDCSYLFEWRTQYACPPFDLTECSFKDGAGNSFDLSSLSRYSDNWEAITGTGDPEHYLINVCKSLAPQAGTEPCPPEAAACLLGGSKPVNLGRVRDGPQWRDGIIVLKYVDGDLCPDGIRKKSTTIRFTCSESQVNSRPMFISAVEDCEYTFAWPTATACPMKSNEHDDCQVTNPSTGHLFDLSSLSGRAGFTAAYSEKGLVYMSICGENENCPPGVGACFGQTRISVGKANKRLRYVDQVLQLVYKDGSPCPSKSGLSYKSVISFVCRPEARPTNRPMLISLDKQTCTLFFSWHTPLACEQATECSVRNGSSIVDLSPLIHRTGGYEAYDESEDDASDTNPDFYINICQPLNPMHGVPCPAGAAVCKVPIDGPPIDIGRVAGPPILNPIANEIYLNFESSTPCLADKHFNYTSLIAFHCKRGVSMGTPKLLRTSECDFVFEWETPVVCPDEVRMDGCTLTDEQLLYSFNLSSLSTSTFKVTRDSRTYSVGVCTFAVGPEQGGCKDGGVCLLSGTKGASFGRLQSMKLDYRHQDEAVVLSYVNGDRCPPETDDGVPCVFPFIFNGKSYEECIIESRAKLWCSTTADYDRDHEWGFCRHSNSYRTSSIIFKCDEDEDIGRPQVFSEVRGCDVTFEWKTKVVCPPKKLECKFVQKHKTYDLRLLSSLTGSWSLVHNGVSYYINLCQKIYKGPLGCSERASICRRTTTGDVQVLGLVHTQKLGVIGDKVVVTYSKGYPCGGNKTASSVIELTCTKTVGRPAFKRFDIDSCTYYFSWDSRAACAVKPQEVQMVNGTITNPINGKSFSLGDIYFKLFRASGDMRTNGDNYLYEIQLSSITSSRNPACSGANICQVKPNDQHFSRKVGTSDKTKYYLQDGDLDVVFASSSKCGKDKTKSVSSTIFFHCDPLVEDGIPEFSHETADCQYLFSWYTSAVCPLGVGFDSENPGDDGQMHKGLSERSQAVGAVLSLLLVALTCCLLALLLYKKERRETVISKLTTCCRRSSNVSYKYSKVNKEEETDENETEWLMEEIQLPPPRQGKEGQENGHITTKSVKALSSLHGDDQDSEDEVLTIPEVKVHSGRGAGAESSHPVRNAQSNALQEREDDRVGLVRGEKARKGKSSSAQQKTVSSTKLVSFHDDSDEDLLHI

O=C(CCN1C(=O)C=CC1=O)NCCOCCOCCOCCn1cc(CCO[C@H]2O[C@H](CCP(=O)(O)O)[C@@H](O)[C@H](O)[C@@H]2O)nn1 [Compound I-10]
binding affinity to M6PR relative to Compound I-7 [1]: weaker binding affinity to M6PR than Compound I-7 | intracellular uptake (Alexa488 fluorescence) [2]: sufficiently robust uptake

O=C(CCOCCn1cc(CCO[C@H]2O[C@H](CCP(=O)(O)O)[C@@H](O)[C@H](O)[C@@H]2O)nn1)Oc1c(F)c(F)c(F)c(F)c1F [Compound I-11]
binding affinity to M6PR relative to Compound I-7 [1]: weaker binding affinity to M6PR than Compound I-7 | intracellular uptake (Alexa488 fluorescence) [2]: sufficiently robust uptake
